PubChem BioAssay (NCI)
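Abbreviation: GI50, concentration required for 50% inhibition of growth. TGI denotes the concentration required for complete inhibition of growth.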

Tests used:
Experiment in all cases: inhibition of tumour cell growth, NCI panel, 384-well format
A498 renal = system: A498 renal
HOP-92 NSCLC = system: HOP-92 NSCLC
OVCAR-5 ovarian = system: OVCAR-5 ovarian
NCI-H23 lung = system: NCI-H23 lung
KM12 colon = system: KM12 colon
ACHN renal = system: ACHN renal
TK-10 renal = system: TK-10 renal
UO-31 renal = system: UO-31 renal
MOLT-4 leukemia = system: MOLT-4 leukemia
SF-268 CNS = system: SF-268 CNS
SK-MEL-2 melanoma = system: SK-MEL-2 melanoma
UACC-257 melanoma = system: UACC-257 melanoma
NCI-H460 NSCLC = system: NCI-H460 NSCLC
MCF7 breast = system: MCF7 breast
HT29 colon = system: HT29 colon
MDA-MB-435 melanoma = system: MDA-MB-435 melanoma
OVCAR-4 ovarian = system: OVCAR-4 ovarian
786-0 renal = system: 786-0 renal
SNB-19 CNS = system: SNB-19 CNS
HCT-15 colon = system: HCT-15 colon
HCT-116 colon = system: HCT-116 colon
K-562 leukemia = system: K-562 leukemia
U251 glioblastoma = system: U251 glioblastoma
HL-60(TB) leukemia = system: HL-60(TB) leukemia
DU-145 prostate = system: DU-145 prostate
BT-549 breast = system: BT-549 breast
HOP-62 NSCLC = system: HOP-62 NSCLC
CAKI-1 renal = system: CAKI-1 renal
SK-MEL-28 melanoma = system: SK-MEL-28 melanoma
SK-MEL-5 melanoma = system: SK-MEL-5 melanoma
NCI-H226 lung = system: NCI-H226 lung
PC-3 prostate = system: PC-3 prostate
SF-539 CNS = system: SF-539 CNS
MDA-MB-231 breast = system: MDA-MB-231 breast
SR leukemia = system: SR leukemia
M14 melanoma = system: M14 melanoma
RXF 393 renal = system: RXF 393 renal
SW-620 colon = system: SW-620 colon
COLO 205 colon = system: COLO 205 colon
SN12C renal = system: SN12C renal
EKVX NSCLC = system: EKVX NSCLC
A549 NSCLC = system: A549 NSCLC
MDA-MB-468 breast = system: MDA-MB-468 breast
T-47D breast = system: T-47D breast
SNB-75 CNS = system: SNB-75 CNS
IGROV1 ovarian = system: IGROV1 ovarian
NCI-H322M lung = system: NCI-H322M lung
NCI-H522 lung = system: NCI-H522 lung
UACC-62 melanoma = system: UACC-62 melanoma
SK-OV-3 ovarian = system: SK-OV-3 ovarian
MALME-3M melanoma = system: MALME-3M melanoma
OVCAR-3 ovarian = system: OVCAR-3 ovarian
OVCAR-8 ovarian = system: OVCAR-8 ovarian
SF-295 CNS = system: SF-295 CNS

In the case of `CC[C@@]1(O)C(=O)OCc2c1cc1n(c2=O)Cc2c-1nc1cc(F)c(C)c3c1c2[C@@H](N)CC3`, the GI50 (A498 renal) is reported as < 0.01 µM, the TGI (A498 renal) is reported as 0.0142 µM and the GI50 (HOP-92 NSCLC) is reported as < 0.01 µM. For the same compound, the TGI (HOP-92 NSCLC) was 0.011 µM, the GI50 (OVCAR-5 ovarian) was < 0.01 µM and the TGI (OVCAR-5 ovarian) was 0.043 µM. The GI50 (NCI-H23 lung) was < 0.01 µM, the TGI (NCI-H23 lung) was < 0.01 µM and the GI50 (KM12 colon) was < 0.01 µM. The TGI (KM12 colon) was < 0.01 µM, the GI50 (ACHN renal) was < 0.01 µM and the TGI (ACHN renal) was < 0.01 µM. For the same compound, the GI50 (TK-10 renal) was < 0.01 µM, the TGI (TK-10 renal) was 0.608 µM and the GI50 (UO-31 renal) was < 0.01 µM. The TGI (UO-31 renal) was < 0.01 µM, the GI50 (MOLT-4 leukemia) was < 0.01 µM and the TGI (MOLT-4 leukemia) was < 0.01 µM. For the same compound, the GI50 (SF-268 CNS) was < 0.01 µM, the TGI (SF-268 CNS) was < 0.01 µM and the GI50 (SK-MEL-2 melanoma) was < 0.01 µM. For the same compound, the TGI (SK-MEL-2 melanoma) was 0.0292 µM, the GI50 (UACC-257 melanoma) was < 0.01 µM and the TGI (UACC-257 melanoma) was < 0.01 µM. For the same compound, the GI50 (NCI-H460 NSCLC) was < 0.01 µM, the TGI (NCI-H460 NSCLC) was 0.0167 µM and the GI50 (MCF7 breast) was < 0.01 µM. The TGI (MCF7 breast) was < 0.01 µM, the GI50 (HT29 colon) was < 0.01 µM and the TGI (HT29 colon) was 0.0107 µM. For the same compound, the GI50 (MDA-MB-435 melanoma) was < 0.01 µM, the TGI (MDA-MB-435 melanoma) was 0.177 µM and the GI50 (OVCAR-4 ovarian) was 0.019 µM. The TGI (OVCAR-4 ovarian) was 0.308 µM, the GI50 ([…]-0 renal) was < 0.01 µM and the TGI (786-0 renal) was < 0.01 µM. The GI50 (SNB-19 CNS) was < 0.01 µM, the TGI (SNB-19 CNS) was 0.0259 µM and the GI50 (HCT-15 colon) was < 0.01 µM. The TGI (HCT-15 colon) was 0.12 µM, the GI50 (HCT-116 colon) was < 0.01 µM and the TGI (HCT-116 colon) was 0.0221 µM. For the same compound, the GI50 (K-562 leukemia) was < 0.01 µM, the TGI (K-562 leukemia) was 0.132 µM and the GI50 (U251 glioblastoma) was < 0.01 µM. The TGI (U251 glioblastoma) was < 0.01 µM, the GI50 (HL-60(TB) leukemia) was < 0.01 µM and the TGI (HL-60(TB) leukemia) was < 0.01 µM. For the same compound, the GI50 (DU-145 prostate) was < 0.01 µM, the TGI (DU-145 prostate) was < 0.01 µM and the GI50 (BT-549 breast) was < 0.01 µM. For the same compound, the TGI (BT-549 breast) was < 0.01 µM, the GI50 (HOP-62 NSCLC) was < 0.01 µM and the TGI (HOP-62 NSCLC) was < 0.01 µM. For the same compound, the GI50 (CAKI-1 renal) was < 0.01 µM, the TGI (CAKI-1 renal) was 0.0117 µM and the GI50 (SK-MEL-28 melanoma) was < 0.01 µM. For the same compound, the TGI (SK-MEL-28 melanoma) was 0.133 µM, the GI50 (SK-MEL-5 melanoma) was < 0.01 µM and the TGI (SK-MEL-5 melanoma) was < 0.01 µM. The GI50 (NCI-H226 lung) was < 0.01 µM, the TGI (NCI-H226 lung) was < 0.01 µM and the GI50 (PC-3 prostate) was < 0.01 µM. The TGI (PC-3 prostate) was 1.05 µM, the GI50 (SF-539 CNS) was < 0.01 µM and the TGI (SF-539 CNS) was < 0.01 µM. For the same compound, the GI50 (MDA-MB-231 breast) was 0.0233 µM, the TGI (MDA-MB-231 breast) was 0.617 µM and the GI50 (SR leukemia) was < 0.01 µM. The TGI (SR leukemia) was < 0.01 µM, the GI50 (M14 melanoma) was < 0.01 µM and the TGI (M14 melanoma) was 0.0187 µM. The GI50 (RXF 393 renal) was < 0.01 µM, the TGI (RXF 393 renal) was < 0.01 µM and the GI50 (SW-620 colon) was < 0.01 µM. For the same compound, the TGI (SW-620 colon) was 0.108 µM, the GI50 (COLO 205 colon) was < 0.01 µM and the TGI (COLO 205 colon) was 0.159 µM. The GI50 (SN12C renal) was < 0.01 µM, the TGI (SN12C renal) was < 0.01 µM and the GI50 (EKVX NSCLC) was < 0.01 µM. For the same compound, the TGI (EKVX NSCLC) was 0.243 µM, the GI50 (A549 NSCLC) was < 0.01 µM and the TGI (A549 NSCLC) was 0.0431 µM. For the same compound, the GI50 (MDA-MB-468 breast) was < 0.01 µM, the TGI (MDA-MB-468 breast) was < 0.01 µM and the GI50 (T-47D breast) was < 0.01 µM. For the same compound, the TGI (T-47D breast) was < 0.01 µM, the GI50 (SNB-75 CNS) was < 0.01 µM and the TGI (SNB-75 CNS) was < 0.01 µM. The GI50 (IGROV1 ovarian) was < 0.01 µM, the TGI (IGROV1 ovarian) was 0.103 µM and the GI50 (NCI-H322M lung) was < 0.01 µM. For the same compound, the TGI (NCI-H322M lung) was 0.0174 µM, the GI50 (NCI-H522 lung) was < 0.01 µM and the TGI (NCI-H522 lung) was < 0.01 µM. The GI50 (UACC-62 melanoma) was < 0.01 µM, the TGI (UACC-62 melanoma) was < 0.01 µM and the GI50 (SK-OV-3 ovarian) was < 0.01 µM. For the same compound, the TGI (SK-OV-3 ovarian) was < 0.01 µM, the GI50 (MALME-3M melanoma) was < 0.01 µM and the TGI (MALME-3M melanoma) was 0.084 µM. The GI50 (OVCAR-3 ovarian) was < 0.01 µM, the TGI (OVCAR-3 ovarian) was 0.0317 µM and the GI50 (OVCAR-8 ovarian) was < 0.01 µM. The TGI (OVCAR-8 ovarian) was 0.0398 µM, the GI50 (SF-295 CNS) was < 0.01 µM and the TGI (SF-295 CNS) was < 0.01 µM.
